Entries after “also recorded” stand apart in the source; their conditions may differ.
Legend:
[1] = biological target: T1, progesterone receptor (Homo sapiens, UniProt P06401); test: Progesterone receptor transactivation, luciferase reporter in HeLa cells
T1 sequence (P06401 1-933): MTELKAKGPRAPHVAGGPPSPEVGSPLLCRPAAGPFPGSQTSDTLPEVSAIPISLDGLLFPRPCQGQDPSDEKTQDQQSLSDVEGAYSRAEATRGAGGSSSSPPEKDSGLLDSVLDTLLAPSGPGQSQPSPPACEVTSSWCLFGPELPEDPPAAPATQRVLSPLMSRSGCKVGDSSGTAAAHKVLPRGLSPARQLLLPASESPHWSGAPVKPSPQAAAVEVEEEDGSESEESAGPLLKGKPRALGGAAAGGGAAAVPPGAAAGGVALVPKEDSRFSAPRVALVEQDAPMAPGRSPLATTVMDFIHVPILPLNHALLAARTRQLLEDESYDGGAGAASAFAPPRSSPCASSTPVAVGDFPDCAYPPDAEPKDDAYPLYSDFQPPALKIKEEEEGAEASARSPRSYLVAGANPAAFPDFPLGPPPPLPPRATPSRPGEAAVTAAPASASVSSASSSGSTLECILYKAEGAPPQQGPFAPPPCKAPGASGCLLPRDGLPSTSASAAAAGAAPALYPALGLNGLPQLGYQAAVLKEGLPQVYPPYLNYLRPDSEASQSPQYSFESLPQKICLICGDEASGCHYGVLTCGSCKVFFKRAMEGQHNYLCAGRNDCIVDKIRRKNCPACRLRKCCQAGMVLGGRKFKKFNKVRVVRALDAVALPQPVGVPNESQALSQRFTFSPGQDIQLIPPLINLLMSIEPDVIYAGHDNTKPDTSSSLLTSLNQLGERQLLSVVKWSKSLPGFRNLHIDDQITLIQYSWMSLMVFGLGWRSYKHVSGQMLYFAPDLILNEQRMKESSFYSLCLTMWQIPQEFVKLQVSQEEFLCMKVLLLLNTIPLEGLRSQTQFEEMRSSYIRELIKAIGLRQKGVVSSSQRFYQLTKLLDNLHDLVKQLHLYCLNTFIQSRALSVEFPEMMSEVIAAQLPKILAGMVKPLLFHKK
Protocol: (§1) Thus, HeLa cells were cotransfected with an androgen receptor (AR) expression plasmid, a plasmid for expression of β-galactosidase (β-gal) and a luciferase reporter plasmid, ARE-Tata-luc (Jenster 1997) and then incubated with ethanol as a solvent control, or with the herbal extracts indicated in Table 1. Herbal extracts were added to the cells six hours after transfection. Thirty-six hours later, the cells were harvested and cell extracts assayed for luciferase activity.
(§2) The DNA mix contained an AR expression vector, a reporter gene vector (ARE-Tata-Luc) and a βGal vectors, the last for purposes of normalizing results for the transfection efficiency. The AR expression vector comprises a cDNA encoding AR and expressed from a SV40 promoter and a rabbit β-globin polyadenylation signal, all cloned in a pBR328 vector. The β-gal vector comprises a bacterial lacZ gene under control of an SV40 promoter-enhancer. The DNA mix was preincubated for 45 min at room temperature with lipofectamine (Promega, Madison, Wis.) in a 400 μl serum-free medium. […] Cell lysates (100 μl) were added to 20 μl of luciferase substrate and luciferase activity measured with a luminometer. Transfection efficiency was assessed by βGal activity and luciferase activity normalized to the protein content of the cell lysates. Total protein in the supernatant was quantified with bovine serum albumin as the standard.

[2] = test system: ventral prostate gland, immature Wistar rats; test: Growth of the ventral prostate gland in immature Wistar rats; format: in vivo, rat; settings: testosterone intramuscularly, alone (FIG. 6a)
Protocol: The growth of the ventral prostate gland, an androgen-dependent tissue, in immature Wistar rats was measured.
To determine the androgenic effect of an ethanolic EU extract in animals, the growth of the ventral prostate gland, an androgen-dependent tissue, in immature Wistar rats was measured. […] In this model, exogenous androgen administration can be directly correlated with the growth of the ventral prostate.

[3] = biological target: T2, androgen receptor (Homo sapiens, UniProt P10275); settings: 0.3 to 10 nM; 3 nM tritiated testosterone
T2 sequence (P10275 1-920): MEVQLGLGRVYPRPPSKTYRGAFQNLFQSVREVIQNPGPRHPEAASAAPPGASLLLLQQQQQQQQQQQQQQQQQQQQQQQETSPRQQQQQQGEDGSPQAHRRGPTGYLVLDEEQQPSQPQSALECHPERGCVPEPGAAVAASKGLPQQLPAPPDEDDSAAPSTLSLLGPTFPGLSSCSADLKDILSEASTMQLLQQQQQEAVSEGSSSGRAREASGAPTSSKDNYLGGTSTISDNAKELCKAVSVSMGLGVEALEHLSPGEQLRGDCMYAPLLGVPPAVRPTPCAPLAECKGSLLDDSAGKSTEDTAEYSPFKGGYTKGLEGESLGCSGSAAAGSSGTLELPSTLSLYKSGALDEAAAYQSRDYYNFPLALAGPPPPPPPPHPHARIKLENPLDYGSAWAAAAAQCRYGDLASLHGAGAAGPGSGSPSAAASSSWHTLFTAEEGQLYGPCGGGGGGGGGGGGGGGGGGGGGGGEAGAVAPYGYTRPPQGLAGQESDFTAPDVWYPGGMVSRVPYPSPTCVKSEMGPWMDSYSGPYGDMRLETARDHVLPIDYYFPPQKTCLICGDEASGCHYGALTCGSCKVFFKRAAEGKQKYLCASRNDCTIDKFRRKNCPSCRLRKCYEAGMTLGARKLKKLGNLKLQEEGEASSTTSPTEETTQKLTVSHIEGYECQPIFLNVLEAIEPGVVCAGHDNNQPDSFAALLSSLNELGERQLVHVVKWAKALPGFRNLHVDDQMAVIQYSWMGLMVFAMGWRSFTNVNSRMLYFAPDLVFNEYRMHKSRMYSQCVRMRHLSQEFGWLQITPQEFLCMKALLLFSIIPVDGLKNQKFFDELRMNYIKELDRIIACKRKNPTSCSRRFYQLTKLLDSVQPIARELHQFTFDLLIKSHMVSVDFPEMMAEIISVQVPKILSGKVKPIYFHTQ

[4] = biological target: T3, glucocorticoid receptor (Homo sapiens, UniProt P04150); test: Glucocorticoid receptor transactivation, luciferase reporter in HeLa cells; format: cell-based
T3 construct: expressed in transfected cells
T3 sequence (P04150 1-777): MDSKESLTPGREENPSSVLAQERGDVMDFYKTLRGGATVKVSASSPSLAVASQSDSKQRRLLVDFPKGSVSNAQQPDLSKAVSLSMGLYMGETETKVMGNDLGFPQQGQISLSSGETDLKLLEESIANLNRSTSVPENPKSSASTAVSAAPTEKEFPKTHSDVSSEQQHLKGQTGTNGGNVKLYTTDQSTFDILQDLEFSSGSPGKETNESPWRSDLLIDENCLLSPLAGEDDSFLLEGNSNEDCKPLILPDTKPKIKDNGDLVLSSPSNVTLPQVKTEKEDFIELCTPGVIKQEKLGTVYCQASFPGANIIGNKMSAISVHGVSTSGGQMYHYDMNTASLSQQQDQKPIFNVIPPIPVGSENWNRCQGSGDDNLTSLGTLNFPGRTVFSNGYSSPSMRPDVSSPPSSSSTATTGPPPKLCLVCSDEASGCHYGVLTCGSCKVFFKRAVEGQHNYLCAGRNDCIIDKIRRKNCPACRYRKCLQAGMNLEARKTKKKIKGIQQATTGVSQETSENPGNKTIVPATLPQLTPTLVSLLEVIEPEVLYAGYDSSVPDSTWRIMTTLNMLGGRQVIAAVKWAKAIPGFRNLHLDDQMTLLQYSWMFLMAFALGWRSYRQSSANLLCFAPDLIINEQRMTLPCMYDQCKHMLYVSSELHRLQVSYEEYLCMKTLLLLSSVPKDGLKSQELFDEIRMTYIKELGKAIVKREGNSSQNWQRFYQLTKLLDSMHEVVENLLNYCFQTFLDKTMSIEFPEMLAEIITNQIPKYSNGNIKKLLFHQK
Protocol: as §1, §2

Compound: CC(=O)[C@H]1CC[C@H]2[C@@H]3CCC4=CC(=O)CC[C@]4(C)[C@H]3CC[C@]12C [Progesterone, progesterone]
- Ratio of Luc activity as percentage (%) of 1 nM ligand ([1]; substance alone): 100%
- Luc activity (fold induction) ([1]; substance alone (extract, or 1 nM progesterone)): 67 fold

Compound: C[C@]12CC[C@H]3[C@@H](CCC4=CC(=O)CC[C@@]43C)[C@@H]1CC[C@@H]2O [testosterone]
- prostate weight (per unit body weight) [2]: dose-dependent increase in prostate weight; also recorded: dose-dependent increments in prostatic weight

Compound: C[C@]12CCC(=O)C=C1CC[C@@H]1[C@@H]2[C@@H](O)C[C@@]2(C)[C@H]1CC[C@]2(O)C(=O)CO [Cortisol, cortisol]
- displacement of tritiated testosterone [3]: does not displace tritiated testosterone
- Ratio of Luc activity as percentage (%) of 1 nM ligand ([4]; substance alone): 100%
- Luc activity (fold induction) ([4]; substance alone (extract, or 1 nM cortisol)): 194 fold
